Results taken from patent publication EP3797781A1, “USE OF EC-7072 AND SYNERGIC COMPOSITIONS THEREOF IN TREATMENT OF CHRONIC LYMPHOCYTIC LEUKEMIA” (priority 2019, dated 2021).

System: T cells and NK cells
Assay: Intracellular staining of IFN-γ and perforin upon PMA/ionomycin stimulation
Assay type: cell-based, human
Details: 200 nM, 24 hours, PBMCs from patients with CLL (n = 4)
Experimental: PBMCs from patients with CLL were treated with 200 nM EC-7072 or DMSO for 24 hours and stimulated with PMA (50 ng/mL) and ionomycin (1 µg/mL) for 5 hours in the presence of GolgiPlug protein transport inhibitor (Beckton Dickinson). T cells and NK cells were then analyzed for intracellular levels of IFN-γ and perforin by flow cytometry.
The effect of EC-7072 toward healthy immune subsets, T lymphocytes and natural killer (NK) cells, which are chronically exposed to leukemia cells in the peripheral blood of patients with CLL was assessed by: • (i) incubating PBMCs isolated from patients with CLL (n = 10) following treatment with increasing concentrations of EC-7072 (0 - 400 nM) for 24 hours. Numbers of T cells (CD3^+CD56^-) (Figure 2A) and NK cells (CD3^-CD56^+) (Figure 2B) were evaluated by flow cytometry and normalized to their respective control (DMSO) condition for each individual patient to obtain percentage of relative number of T cells and NK cells, respectively; • (ii) incubating PBMCs isolated from patients with CLL (n = 6 - 10) following treatment with increasing concentrations of EC-7072 (0 - 400 nM) for 24 hours. […]

Question: For `CO[C@@H]([C@@H]1Cc2cc3cc(O[C@H]4C[C@@H](O[C@H]5C[C@@H](O)[C@H](O)[C@@H](C)O5)[C@H](O)[C@@H](C)O4)c(C)c(O)c3c(O)c2C(=O)[C@H]1O[C@H]1C[C@@H](O[C@H]2C[C@@H](O[C@H]3C[C@](C)(O)[C@H](O)[C@@H](C)O3)[C@@H](O)[C@@H](C)O2)[C@H](O)[C@@H](C)O1)[C@@H](O)C(C)=O` [EC-7072, mithramycin SK], which “production of interferon (IFN)-γ and perforin by T cells and NK cells” value is on record?
Answer: The value was “not significantly altered”.
